Legend:
EGFR-Del19/T790M/C797S = assay: EGFR degradation HTRF assay in H1975-clone #28 cells; assay type: cell-based; settings: H1975-clone #28 (Del19/T790M/C797S) cells, 16 h treatment; for DC50: IC50 (DC50), read-out: DC50(nM) H1975 # 28 DTC; for Dmax (%) H1975 # 28 DTC: maximum percentage of inhibition (degradation)
Experimental: (§1) H1975-clone #28(Del19/T790M/C797S) and H1975-clone #25(L858R/T790M/C797S). EGFR-Del19/T790M/C797S and EGFR-L858R/T790M/C797S were stably expressed in H1975 cell lines by lentivirus-mediated over-expression, respectively. The EGFR over-expressed cells then underwent knockout, in which the EGFR targeting sgRNA was designed to only target the endogenous EGFR copies and preserve the exogenous EGFR copies. Followed by knockout, the edited H1975 cells were seeded in 96 well plates at the concentration of […], cultured for about 2 weeks to allow single clones formation. The formed clones were screened by DNA sequencing and whole exon sequencing analysis for the desired edition.
(§2) H1975-clone #28, and H1975-clone #25 were finally confirmed as homozygous Del19/T790M/C797S EGFR, and L858R/T790M/C797S EGFR clones, respectively.
(§3) H1975-#25 and H1975-#28 cells are treated with compounds diluted in 0.2% DMSO cell culture medium on day 2, incubate for 16 h, 37° C., 5% CO2. the final concentration of compounds in all assay is start with 10 uM, 5-fold dilution, total 8 doses were included.
(§4) After 16 h treatment, add HTRF lysis buffer to each well; seal the plate and incubate 1 hour at room temperature on a plate shaker; Once the cells are lysed, 16 μL of cell lysate are transferred to a PE 384-well HTRF detection plate; 4 μL of pre-mixed HTRF antibodies are added to each well; Cover the plate with a plate sealer, spin 1000 rpm for 1 min, Incubate overnight at room temperature; Read on BMG PheraStar with HTRF protocol (337 nm-665 nm-620 nm).
(§5) The inhibition (degradation) percentage of the compound was calculated by the following equation:
(§6) Inhibition percentage of Compound=100−100×(Signal−low control)/(High control−low control),
(§7) The IC50 (DC50) value of a compound can be obtained by fitting the following equation
(§8) Wherein, X and Y are known values, and IC50, Hillslope, Top and Bottom are the parameters obtained by fitting with software. Y is the inhibition percentage (calculated from the equation), X is the concentration of the compound; IC50 is the concentration of the compound when the 50% inhibition is reached. The smaller the IC50 value is, the stronger the inhibitory ability of the compound is. Vice versa, the higher the IC50 value is, the weaker the ability the inhibitory ability of the compound is; Hillslope represents the slope of the fitted curve, generally around 1 *; Bottom represents the minimum value of the curve obtained by data fitting, which is generally 0%±20%; Top represents the maximum value of the curve obtained by data fitting, which is generally 100%±20%. The experimental data were fitted by calculating and analyzing with Dotmatics data analysis software.

EGFR-L858R/T790M/C797S = biological target: T1, EGFR-L858R/T790M/C797S (Homo sapiens, UniProt P00533, C797S/L858R/T790M); assay: EGFR degradation HTRF assay in H1975-clone #25 cells; assay type: cell-based; settings: 16 h treatment; for DC50: H1975-clone #25 (L858R/T790M/C797S) cells, IC50 (DC50), read-out: DC50(nM) H1975 # 25-LTC; for Dmax: NCI-H1975, H1975-clone #25 (L858R/T790M/C797S) cells, maximum percentage of inhibition (degradation), read-out: Dmax (%) H1975 # 25-LTC
T1 construct: expressed in transfected cells; host or cells: H1975-clone #25 (lentiviral over-expression, endogenous EGFR knocked out)
T1 sequence (P00533 25-1210 T790M/C797S/L858R): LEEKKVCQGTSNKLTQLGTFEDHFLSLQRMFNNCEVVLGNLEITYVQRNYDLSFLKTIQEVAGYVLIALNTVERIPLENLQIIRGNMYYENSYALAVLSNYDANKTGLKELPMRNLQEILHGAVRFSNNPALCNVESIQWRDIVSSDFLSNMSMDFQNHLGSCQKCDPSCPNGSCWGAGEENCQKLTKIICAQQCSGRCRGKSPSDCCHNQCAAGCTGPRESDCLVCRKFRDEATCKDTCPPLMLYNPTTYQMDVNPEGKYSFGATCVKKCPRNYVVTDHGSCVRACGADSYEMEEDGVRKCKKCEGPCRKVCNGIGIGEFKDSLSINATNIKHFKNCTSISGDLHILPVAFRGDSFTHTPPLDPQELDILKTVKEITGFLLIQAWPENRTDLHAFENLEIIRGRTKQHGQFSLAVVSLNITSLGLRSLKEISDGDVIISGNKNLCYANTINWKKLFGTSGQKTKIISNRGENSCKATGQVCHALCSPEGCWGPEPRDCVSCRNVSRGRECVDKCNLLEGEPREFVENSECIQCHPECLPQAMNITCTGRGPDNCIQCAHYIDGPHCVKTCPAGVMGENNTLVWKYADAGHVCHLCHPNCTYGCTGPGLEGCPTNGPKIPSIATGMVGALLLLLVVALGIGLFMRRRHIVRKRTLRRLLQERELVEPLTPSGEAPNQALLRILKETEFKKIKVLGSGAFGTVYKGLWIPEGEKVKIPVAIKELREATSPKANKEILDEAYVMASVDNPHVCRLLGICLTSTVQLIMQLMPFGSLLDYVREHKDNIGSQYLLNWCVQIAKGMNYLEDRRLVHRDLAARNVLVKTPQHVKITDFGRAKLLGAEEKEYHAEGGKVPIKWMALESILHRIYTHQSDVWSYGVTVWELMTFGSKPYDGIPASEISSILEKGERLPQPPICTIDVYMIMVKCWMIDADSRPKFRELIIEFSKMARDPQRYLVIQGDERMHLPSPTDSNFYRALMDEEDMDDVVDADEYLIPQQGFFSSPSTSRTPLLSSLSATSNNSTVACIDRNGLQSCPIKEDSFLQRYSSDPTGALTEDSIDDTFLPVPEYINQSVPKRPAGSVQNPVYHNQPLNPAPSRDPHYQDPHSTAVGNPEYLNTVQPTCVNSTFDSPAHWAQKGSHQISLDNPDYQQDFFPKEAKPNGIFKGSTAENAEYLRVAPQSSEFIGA
Experimental: as §1, §2, §3, §4, §5, §6, §7, §8

Row | Compound | DC50 (EGFR-Del19/T790M/C797S) [nM] | Dmax (%) H1975 # 28 DTC (EGFR-Del19/T790M/C797S) [%] | DC50 (EGFR-L858R/T790M/C797S) [nM] | Dmax (EGFR-L858R/T790M/C797S) [%]
1 | CCc1cc(Nc2ncc(Br)c(Nc3ccc4nc(C)c(F)cc4c3P(C)(C)=O)n2)c(OC)cc1N1CCC2(CCN(CCCc3cccc4c3n(C)c(=O)n4C3CCC(=O)NC3=O)CC2)CC1 (centres unmarked) [Example 28, 3-(4-(3-(9-(4-((5-bromo-4-((5-(dimethylphosphoryl)-3-fluoro-2-methylquinolin-6-yl)amino)pyrimidin-2-yl)amino)-2-ethyl-5-methoxyphenyl)-3,9-diazaspiro[5.5]undecan-3-yl)propyl)-3-methyl-2-oxo-2,3-dihydro-1H-benzo[d]imidazol-1-yl)piperidine-2,6-dione] | 1 | 80 | 2.2 | 87
2 | CCc1ccc2c(P(C)(C)=O)c(Nc3nc(Nc4cc(CC)c(N5CCC(N6CCC(N7CC(c8cc(F)c([C@H]9CCC(=O)NC9=O)c(F)c8)C7)CC6)CC5)cc4OC)ncc3Br)ccc2n1 (single isomer, unassigned) [Example 30] | 13.3 | 87 | 10.8 | 89
3 | CCc1cc(Nc2ncc(Br)c(Nc3ccc4nc(C)c(F)cc4c3P(C)(C)=O)n2)c(OC)cc1N1CCC2(CC1)CCN(C1CN(c3cc(F)c([C@H]4CCC(=O)NC4=O)c(F)c3)C1)CC2 [Example 38, (R)-3-(4-(3-(9-(4-((5-bromo-4-((5-(dimethylphosphoryl)-3-fluoro-2-methylquinolin-6-yl)amino)pyrimidin-2-yl)amino)-2-ethyl-5-methoxyphenyl)-3,9-diazaspiro[5.5]undecan-3-yl)azetidin-1-yl)-2,6-difluorophenyl)piperidine-2,6-dione] | 7.4 | 85 | 8.6 | 89
4 | CCOc1cc(N2CCC(N3CCC4(CC3)CN(c3cc(F)c([C@H]5CCC(=O)NC5=O)c(F)c3)C4)CC2)c(CC)cc1Nc1ncc(Br)c(Nc2ccc3nc(CC)ncc3c2P(C)(C)=O)n1 (single isomer, unassigned) [Example 19] | 1.1 | 91 | 1.9 | 93
5 | CCc1cc(Nc2ncc(Br)c(Nc3ccc4nc(C)c(F)cc4c3P(C)(C)=O)n2)c(OC)cc1N1CCC2(CCN(CC3CN(c4cc(F)c([C@H]5CCC(=O)NC5=O)c(F)c4)C3)CC2)CC1 [Example 39, (R)-3-(4-(3-((9-(4-((5-bromo-4-((5-(dimethylphosphoryl)-3-fluoro-2-methylquinolin-6-yl)amino)pyrimidin-2-yl)amino)-2-ethyl-5-methoxyphenyl)-3,9-diazaspiro[5.5]undecan-3-yl)methyl)azetidin-1-yl)-2,6-difluorophenyl)piperidine-2,6-dione] | 2.6 | 92 | 5.6 | 93
6 | CCc1ccc2c(P(C)(C)=O)c(Nc3nc(Nc4cc(CC)c(N5CCC(N6CCN(C7CCN(c8cc(F)c([C@H]9CCC(=O)NC9=O)c(F)c8)CC7)CC6)CC5)cc4OC)ncc3Br)ccc2n1 (single isomer, unassigned) [Example 10] | 2.7 | 88 | 4.9 | 91
7 | CCc1cc(Nc2ncc(Br)c(Nc3ccc4nc(C)c(F)cc4c3P(C)(C)=O)n2)c(OC)cc1N1CCC2(CCN(CCNc3cc(F)c([C@H]4CCC(=O)NC4=O)c(F)c3)CC2)CC1 (single isomer, unassigned) [Example 43] | 3.7 | 87 | 4.6 | 90
8 | CCc1cc(Nc2ncc(Br)c(Nc3ccc4nc(C)c(F)cc4c3P(C)(C)=O)n2)c(OC)cc1N1CCC2(CCN(C(=O)CN3CCC(c4ccc(NC5CCC(=O)NC5=O)cc4)CC3)CC2)CC1 (single isomer, unassigned) [Example 29, 3-((4-(1-(2-(9-(4-((5-bromo-4-((5-(dimethylphosphoryl)-3-fluoro-2-methylquinolin-6-yl)amino)pyrimidin-2-yl)amino)-2-ethyl-5-methoxyphenyl)-3,9-diazaspiro[5.5]undecan-3-yl)-2-oxoethyl)piperidin-4-yl)phenyl)amino)piperidine-2,6-dione] | 3.1 | 88 | 3.8 | 96
9 | CCOc1cc(N2CCC(N3CCC4(CC3)CN(c3cc(F)c([C@H]5CCC(=O)NC5=O)c(F)c3)C4)CC2)c(CC)cc1Nc1ncc(Cl)c(Nc2ccc3nc(C)c(F)cc3c2P(C)(C)=O)n1 [Example 57, (R)-3-(4-(7-(1-(4-((5-chloro-4-((5-(dimethylphosphoryl)-3-fluoro-2-methylquinolin-6-yl)amino)pyrimidin-2-yl)amino)-5-ethoxy-2-ethylphenyl)piperidin-4-yl)-2,7-diazaspiro[3.5]nonan-2-yl)-2,6-difluorophenyl)piperidine-2,6-dione] | 4.5 | 88 | 2.7 | 90
10 | CCc1cc(Nc2ncc(Br)c(Nc3ccc4nc(C)c(F)cc4c3P(C)(C)=O)n2)c(OC)cc1N1CCC2(CC1)CCN(C1CCN(c3cccc4c3n(C)c(=O)n4C3CCC(=O)NC3=O)CC1)CC2 (centres unmarked) [Example 51, 3-(4-(4-(9-(4-((5-bromo-4-((5-(dimethylphosphoryl)-3-fluoro-2-methylquinolin-6-yl)amino)pyrimidin-2-yl)amino)-2-ethyl-5-methoxyphenyl)-3,9-diazaspiro[5.5]undecan-3-yl)piperidin-1-yl)-3-methyl-2-oxo-2,3-dihydro-1H-benzo[d]imidazol-1-yl)piperidine-2,6-dione] | 2.5 | 77 | 3.1 | 89
11 | CCc1cc(Nc2ncc(Cl)c(Nc3ccc4nc(C)c(F)cc4c3P(C)(C)=O)n2)c(OC)cc1N1CCC2(CCN(CCc3cc(F)c([C@H]4CCC(=O)NC4=O)c(F)c3)CC2)CC1 [Example 41, (R)-3-(4-(2-(9-(4-((5-chloro-4-((5-(dimethylphosphoryl)-3-fluoro-2-methylquinolin-6-yl)amino)pyrimidin-2-yl)amino)-2-ethyl-5-methoxyphenyl)-3,9-diazaspiro[5.5]undecan-3-yl)ethyl)-2,6-difluorophenyl)piperidine-2,6-dione] | 4.2 | 86 | 4.2 | 88
12 | CCc1cc(Nc2ncc(Br)c(Nc3ccc4nc(C)c(F)cc4c3P(C)(C)=O)n2)c(OC)cc1N1CCC(N2CC(N3CCN(c4cc(F)c([C@H]5CCC(=O)NC5=O)c(F)c4)CC3)C2)CC1 (single isomer, unassigned) [Example 16] | 2.8 | 88 | 1.1 | 85
13 | CCc1ccc2c(P(C)(C)=O)c(Nc3nc(Nc4cc(C)c(N5CCC6(CCN(CCc7cccc8c7n(C)c(=O)n8C7CCC(=O)NC7=O)CC6)CC5)cc4OC)ncc3Br)ccc2n1 (centres unmarked) [Example 68, 3-(4-(2-(9-(4-((5-bromo-4-((5-(dimethylphosphoryl)-2-ethylquinolin-6-yl)amino)pyrimidin-2-yl)amino)-5-methoxy-2-methylphenyl)-3,9-diazaspiro[5.5]undecan-3-yl)ethyl)-3-methyl-2-oxo-2,3-dihydro-1H-benzol[d]imidazol-1-yl)piperidine-2,6-dione] | 2.2 | 82 | 3.1 | 81
14 | CCc1cc(Nc2ncc(Cl)c(Nc3ccc4nc(C)c(F)cc4c3P(C)(C)=O)n2)c(OC)cc1N1CCC(N2CCC(N3CCN(c4cc(F)c([C@H]5CCC(=O)NC5=O)c(F)c4)CC3)CC2)CC1 [Example 12, (R)-3-(4-(4-(1′-(4-((5-chloro-4-((5-(dimethylphosphoryl)-3-fluoro-2-methylquinolin-6-yl)amino)pyrimidin-2-yl)amino)-2-ethyl-5-methoxyphenyl)-[1,4′-bipiperidin]-4-yl)piperazin-1-yl)-2,6-difluorophenyl)piperidine-2,6-dione] | 2.9 | 91 | 2.5 | 92

From patent US20240368203A1, “DEGRADATION OF (EGFR) BY CONJUGATION OF EGFR INHIBITORS WITH E3 LIGASE LIGAND AND METHODS OF USE” (BeiGene, Ltd., priority 2022, published 2024)
